According to patent publication US6348460B1 (priority 1997, dated 2002):

melting point | SMILES
60 °C (dec.) | Cc1ccc(N(SN2CCOCC2)C(=O)c2snnc2C)cc1 [b183, 4-methyl-N-(4-methylphenyl)-N-morpholinothio-1,2,3-thiadiazole-5-carboxamide]
165 °C | Cc1nnsc1C(=O)NS(C)(=O)=O
